Numbers after ± are expanded uncertainties.
Assay: mn = molality of the nth substance listed, in mol/kg
Conditions: 101 kPa, Liquid; for mass density: Vibrating tube method

CC(C)C[C@H](N)C(=O)O [L-leucine] + O
speed of sound [m/s], Sing-around technique in a fixed-path interferometer
Conditions	m1 = 0.01941	m1 = 0.02155	m1 = 0.0281	m1 = 0.03296	m1 = 0.04083	m1 = 0.05231	m1 = 0.06632	m1 = 0.07033
288.15 K	–	1468.6 ± 1.8	1469.5 ± 1.8	1470.1 ± 1.8	1471.1 ± 1.8	–	1474.4 ± 1.8	1475 ± 1.8
298.15 K	1498.8 ± 1.8	–	1499.9 ± 1.8	1500.5 ± 1.8	–	1502.7 ± 1.8	1504.4 ± 1.8	–
308.15 K	–	–	–	1523.2 ± 1.8	1524.1 ± 1.8	1525.2 ± 1.8	1526.7 ± 1.8	1527.1 ± 1.8
318.15 K	–	–	1539.1 ± 1.8	1539.5 ± 1.8	1540.2 ± 1.8	1541.3 ± 1.8	1542.6 ± 1.8	1543 ± 1.8

Conditions	viscosity [mPa·s]
288.15 K, m1 = 0.01977	1.151 ± 0.021
288.15 K, m1 = 0.02401	1.153 ± 0.021
288.15 K, m1 = 0.03189	1.158 ± 0.021
288.15 K, m1 = 0.04067	1.163 ± 0.021
288.15 K, m1 = 0.04511	1.166 ± 0.021
288.15 K, m1 = 0.0503	1.169 ± 0.021
298.15 K, m1 = 0.02228	0.9009 ± 0.017
298.15 K, m1 = 0.03694	0.9076 ± 0.017
298.15 K, m1 = 0.04045	0.9094 ± 0.017
298.15 K, m1 = 0.05353	0.9156 ± 0.017
298.15 K, m1 = 0.06724	0.9222 ± 0.017
298.15 K, m1 = 0.08113	0.928 ± 0.017
308.15 K, m1 = 0.0193	0.7262 ± 0.014
308.15 K, m1 = 0.02231	0.7271 ± 0.014
308.15 K, m1 = 0.03116	0.7301 ± 0.014
308.15 K, m1 = 0.03988	0.7332 ± 0.014
308.15 K, m1 = 0.04441	0.7347 ± 0.014
308.15 K, m1 = 0.05005	0.7366 ± 0.014
318.15 K, m1 = 0.01898	0.6012 ± 0.012
318.15 K, m1 = 0.02214	0.602 ± 0.012
318.15 K, m1 = 0.03098	0.6043 ± 0.012
318.15 K, m1 = 0.03968	0.6064 ± 0.012
318.15 K, m1 = 0.04439	0.6076 ± 0.012
318.15 K, m1 = 0.04995	0.6092 ± 0.012

CC(C)[C@H](N)C(=O)O [L-valine] + O
speed of sound [m/s], Sing-around technique in a fixed-path interferometer
Conditions	m1 = 0.0197	m1 = 0.03559	m1 = 0.04365	m1 = 0.05244	m1 = 0.0586	m1 = 0.07142	m1 = 0.08303
288.15 K	–	1469.6 ± 1.6	1470.5 ± 1.6	1471.4 ± 1.6	1472 ± 1.6	1473.4 ± 1.6	1474.6 ± 1.6
298.15 K	–	1500.1 ± 1.6	1500.9 ± 1.6	1501.7 ± 1.6	1502.3 ± 1.6	1503.6 ± 1.6	1504.7 ± 1.6
308.15 K	–	1523 ± 1.6	1523.8 ± 1.6	1524.6 ± 1.6	1525.1 ± 1.6	1526.3 ± 1.6	1527.3 ± 1.6
318.15 K	1538.1 ± 1.6	–	1540 ± 1.6	1540.7 ± 1.6	1541.2 ± 1.6	1542.3 ± 1.6	1543.2 ± 1.6

Conditions	viscosity [mPa·s]
288.15 K, m1 = 0.02209	1.15 ± 0.021
288.15 K, m1 = 0.03342	1.157 ± 0.021
288.15 K, m1 = 0.04176	1.161 ± 0.021
288.15 K, m1 = 0.04553	1.163 ± 0.021
288.15 K, m1 = 0.0505	1.166 ± 0.021
288.15 K, m1 = 0.05576	1.169 ± 0.021
298.15 K, m1 = 0.02235	0.8987 ± 0.017
298.15 K, m1 = 0.03324	0.9027 ± 0.017
298.15 K, m1 = 0.04271	0.9064 ± 0.017
298.15 K, m1 = 0.04775	0.9082 ± 0.017
298.15 K, m1 = 0.05319	0.9101 ± 0.017
298.15 K, m1 = 0.05741	0.9118 ± 0.017
308.15 K, m1 = 0.02114	0.7258 ± 0.014
308.15 K, m1 = 0.03147	0.7288 ± 0.014
308.15 K, m1 = 0.04157	0.7319 ± 0.014
308.15 K, m1 = 0.04549	0.7331 ± 0.014
308.15 K, m1 = 0.04791	0.7337 ± 0.014
308.15 K, m1 = 0.05464	0.7358 ± 0.014
318.15 K, m1 = 0.02149	0.6014 ± 0.012
318.15 K, m1 = 0.03166	0.6038 ± 0.012
318.15 K, m1 = 0.04179	0.6061 ± 0.012
318.15 K, m1 = 0.04524	0.6068 ± 0.012
318.15 K, m1 = 0.0474	0.6073 ± 0.012
318.15 K, m1 = 0.05407	0.609 ± 0.012

[Cl][Cd][Cl] [cadmium chloride] + O
Conditions	mass density [kg/m3]	speed of sound [m/s]	viscosity [mPa·s]
288.15 K, m1 = 0.1	1015.69 ± 0.16	1479 ± 1.7	1.144 ± 0.056
288.15 K, m1 = 0.5	1077.05 ± 0.18	1484 ± 1.7	1.223 ± 0.059
288.15 K, m1 = 1	1149.37 ± 0.21	1492.8 ± 1.7	1.334 ± 0.064
288.15 K, m1 = 1.5	1205.71 ± 0.27	1496.2 ± 1.8	1.472 ± 0.07
298.15 K, m1 = 0.1	1012.89 ± 0.16	1501.6 ± 1.7	0.926 ± 0.046
298.15 K, m1 = 0.5	1072.65 ± 0.17	1507.2 ± 1.7	1.036 ± 0.051
298.15 K, m1 = 1	1140.72 ± 0.21	1511.4 ± 1.7	1.16 ± 0.056
298.15 K, m1 = 1.5	1199.85 ± 0.27	1514.4 ± 1.8	1.226 ± 0.059
308.15 K, m1 = 0.1	1009.59 ± 0.16	1522.4 ± 1.7	0.7258 ± 0.038
308.15 K, m1 = 0.5	1068.5 ± 0.17	1525.2 ± 1.7	0.8259 ± 0.042
308.15 K, m1 = 1	1135.37 ± 0.2	1527.4 ± 1.7	0.9138 ± 0.046
308.15 K, m1 = 1.5	1193.02 ± 0.26	1530.2 ± 1.8	0.9824 ± 0.049
318.15 K, m1 = 0.1	1005.51 ± 0.15	1538.6 ± 1.7	0.6097 ± 0.033
318.15 K, m1 = 0.5	1063.8 ± 0.17	1541.8 ± 1.7	0.6739 ± 0.035
318.15 K, m1 = 1	1129.17 ± 0.2	1543.2 ± 1.7	0.7467 ± 0.038
318.15 K, m1 = 1.5	1186 ± 0.26	1546.2 ± 1.8	0.8197 ± 0.042

O [water] + [Cl][Cd][Cl]
m2 = 0
Conditions	viscosity [mPa·s]
288.15 K	1.138 ± 0.055
298.15 K	0.8903 ± 0.045
308.15 K	0.7195 ± 0.037
318.15 K	0.5963 ± 0.032
